Holding throughout (type): in vivo, mouse (D2.B10-Dmd^mdx/J)
Assay [1] deals with D2.B10 mice. Description: Myofiber cross-sectional area (CSA) in D2.B10 mice. The conditions noted are these: for TA CSA / GAS CSA: D2.B10 mice, Givinostat 37.5 mg/kg. The source says: (§1) Tibialis anterior (TA), gastrocnemius (GAS), DIA, and heart were collected from mice maintained under isoflurane anesthesia and sacrificed by cervical dislocation. These muscles were collected from C57BL/10J wt and mdx (5 mice/group) at the end of treatments and from DBA/2J wt and D2.B10 mice (5 mice/group) at two different time points to be examined by a pathologist (for more details see Additional Table 1). Due to the results obtained by the functional tests, muscles from only some treatment groups were analyzed in both DMD models (see Additional Table 1). All the collected muscles were fixed in 10% buffered formalin solution (Bio-optica, Milan, Italy) at + 4 °C for at least 48 h. After fixation, muscular samples were transversely trimmed, caged, and paraffin embedded overnight with an Automated Vacuum Tissue Processor Floor (ETP, Histo-Line Laboratories) and included in paraffin blocks. Serial transverse cross-sections (4 μm thick) were cut with a microtome (Leica RM 2255), collected onto uncoated glass slides, and stained using a standard protocol for hematoxylin and eosin (Mayer hematoxylin & Aqueous G Eosin 1%, Bio-Optica) and Sirius Red staining (Direct Red 80, Sigma-Aldrich). For the image analysis and quantitation, hematoxylin and eosin- and Sirius Red-stained slides were examined with an Olympus BX51 light microscope. From each sample, 1 to 3 random microphotographs at the magnification of × 4 and × 10 (TA, GAS and heart) or × 20 (DIA) were collected using Image-Pro Plus system. The digital images were processed by a pathologist using ImageJ software (U.S. National Institutes of Health, Bethesda, MD, USA). To quantify CSA and centralized nuclei (%) on hematoxylin and eosin-stained sections, one hundred myofibers were manually measured for each muscle/mouse using a tablet pen (Wacom Intruos) and analyzed by the ImageJ software after a linear calibration of 150 μm. The fibrotic area, corresponding to the area stained in red, was compared to the total area of the tissue section, and the results were expressed as percentage fibrosis. The % of fibrosis of muscles in the different treatment groups was expressed by averaging the three values obtained from each muscle.
The deciles of the CSA of the animals treated with Givinostat at the different doses were plotted against the corresponding deciles of the vehicle-treated mice and a linear regression analysis was performed on natural [CSAtreated = b CSAcontrol + a] and log_transformed data [log(CSAtreated) = log(a) + b log(CSAcontrol)]. […] In case of untransformed data, this means that the effect of Givinostat treatment is additive and any decile of the CSAtreatment distribution may be derived from the control data summing up a constant quantity (S) to each fiber AREA of the control group (CSAtreated = CSAcontrol + S). In case of log_transformed data, the effect of Givinostat has to be considered as a multiplicative factor on any generic fiber of the muscle under evaluation, whose size, after the treatment, results K times larger in comparison to the control group value (CSAtreated […] = K × CSAcontrol, with K = 10^a). The S or K parameter values were then determined through an iterative estimation procedure, based on sum of squares (SSQ) minimization, directly comparing the CSA distribution observed in treated animals with that obtained summing up the S value or multiplying by K the CSA values of the control group.

Assay [2] deals with D2.B10 mice. Description: Muscle fibrosis by Sirius Red staining in D2.B10 mice. The conditions noted are these: for Reduction of fibrosis in DIA: T8; for Reduction of fibrosis in TA: T8, Givinostat 37.5 mg/kg, steroids 1 mg/kg, vs vehicle; for Effect on fibrosis in GAS: T16; for Efficacy on fibrosis in DIA: T16, Givinostat 37.5 mg/kg, prednisone.
Excerpt: as §1

The subject of assay [3] is D2.B10 mice. The experiment in a line: Centralized nuclei (%) in muscles of D2.B10 mice. The note with it: Givinostat 37.5 mg/kg; for Nuclear centralization in TA: prednisone (vehicle 21.2 ± 1.0); for Nuclear centralization in GAS: prednisone (vehicle 25.1 ± 1.5).
Excerpt: as §1

[4] abbreviates: T8, prednisone 1 mg/kg (vehicle 600).
Setting [5] is: T8, prednisone 1 mg/kg (vehicle 1050).
[6] abbreviates: T16, prednisone 1 mg/kg (vehicle 300).

Take `CCN(CC)Cc1ccc2cc(COC(=O)Nc3ccc(C(=O)NO)cc3)ccc2c1` [Givinostat]: the “TA CSA” value in the assay with D2.B10 mice [1] (setting [4]) is given as 300 μm^2. The “GAS CSA” value in the assay on D2.B10 mice [1] (setting [5]) came out at 600 μm^2. Also, in the assay on D2.B10 mice [1] (setting [6]), the “GAS CSA” value worked out at 450 μm^2 and the “TA CSA” value amounted to 300 μm^2. Moreover, in the assay with D2.B10 mice [2], the “Reduction of fibrosis in DIA” value is recorded as “about 33%”, the “Reduction of fibrosis in TA” value is listed as “about 22%”, the “Effect on fibrosis in GAS” value is “No significant effect” and the “Efficacy on fibrosis in DIA” value is on record as “lost”. In the assay on D2.B10 mice [3], the “Nuclear centralization in TA” value came out at 19.8 ± 2.4% and the “Nuclear centralization in GAS” value turned out to be 22.4 ± 2.1%.
`C[C@]12C=CC(=O)C=C1CC[C@@H]1[C@@H]2C(=O)C[C@@]2(C)[C@H]1CC[C@]2(O)C(=O)CO` [prednisone]: the “TA CSA” value in the assay with D2.B10 mice [1] (setting [4]) stood at 300 μm^2. For the same molecule, the “GAS CSA” value with D2.B10 mice [1] (setting [5]) worked out at 600 μm^2. For the same molecule, in the assay with D2.B10 mice [1] (setting [6]), the “GAS CSA” value is on record as 300 μm^2 and the “TA CSA” value came to 300 μm^2. For the same molecule, the “Effect of steroid on cross-sectional area and centralized nuclei” value with D2.B10 mice [1] (D2.B10 muscles, 1 mg/kg i.p. weekly) is “unable to affect cross-sectional area or the number of centralized nuclei”. Moreover, the “Effect of steroid on fibrosis, summary” value in the assay with D2.B10 mice [2] (1 mg/kg i.p. weekly) was “significantly reduced fibrosis in TA, GAS, and DIA”. For the same molecule, in the assay on D2.B10 mice [2], the “Reduction of fibrosis in DIA” value is reported as about 45%, the “Reduction of fibrosis in TA” value is “about 22%”, the “Effect on fibrosis in GAS” value is “No significant effect” and the “Efficacy on fibrosis in DIA” value is listed as “lost”. The “Reduction of fibrosis in GAS” value in the assay on D2.B10 mice [2] (T8, vs vehicle) is “about 26%”. Further, in the assay with D2.B10 mice [3], the “Nuclear centralization in TA” value worked out at 22.0 ± 2.4% and the “Nuclear centralization in GAS” value is given as 21.6 ± 1.7%.

The record behind these values is paper PMC8296708, “The pan HDAC inhibitor Givinostat improves muscle function and histological parameters in two Duchenne muscular dystrophy murine models expressing different haplotypes of the LTBP4 gene” (Skeletal Muscle, 2021).
